Experimental data: patent US8592486B2, “Compounds for inflammation and immune-related uses” (Synta Pharmaceuticals Corp., priority 2005, dated 2013)

Tests used:
IL-2 production = experiment: Inhibition of IL-2 production in PHA-activated Jurkat cells (ELISA); format: cell-based, human; conditions: Homo sapiens, Jurkat, 20 h, Jurkat cells, PHA 2.5 μg/mL, 20 hours, IL-2 ELISA; read-out: IC50 (inhibition of IL-2 production)
Protocol: Jurkat cells were placed in a 96 well plate (0.5 million cells per well in 1% FBS medium) then a test compound of this invention was added at different concentrations. After 10 minutes, the cells were activated with PHA (final concentration 2.5 μg/mL) and incubated for 20 hours at 37° C. under CO2. The final volume was 200 μL. Following incubation, the cells were centrifuged and the supernatants collected and stored at −70° C. prior to assaying for IL-2 production. A commercial ELISA kit (IL-2 Eli-pair, Diaclone Research, Besancon, France) was used to detect production of IL-2, from which dose response curves were obtained. The IC50 value was calculated as the concentration at which 50% of maximum IL-2 production after stimulation was inhibited versus a non-stimulation control.

[1] = tested on: chemotactic response of porcine T cells to MIP-1α; experiment: T cell chemotaxis (cell migration) assay, porcine T cells; format: cell-based, pig; conditions: Sus scrofa, 10 ng/ml MIP-1α, 2 hr migration, averages of triplicates, read-out: IC50, inhibition of chemotactic response of porcine T cells
Protocol: (§1) Twenty ml aliquots of heparinized whole blood (2 pig, 1 human) were subjected to density gradient centrifugation on Ficoll Hypaque. The buffy coat layers representing peripheral blood mononuclear cells (PBMCs) containing lymphocytes and monocytes were washed once, resuspended in 12 ml of incomplete RPMI 1640 and then placed in gelatin-coated T75 culture flasks for 1 hr at 37° C. The non-adherent cells, representing peripheral blood lymphocytes (PBLs) depleted of monocytes, were resuspended in complete RPMI media and placed in loosely packed activated nylon wool columns that had been equilibrated with warm media. After 1 hr at 37° C., the non-adherent T cell populations were eluted by washing of the columns with additional media. The T cell preparations were centrifuged, resuspended in 5 ml of incomplete RPMI, and counted using a hemocytometer.
(§2) Aliquots of each T cell preparation were labeled with Calcien AM (TefLabs) and suspended at a concentration of 2.4×10^6/ml in HEPES-buffered Hank's Balanced Salt Solution containing 1.83 mM CaCl2 and 0.8 mM MgCl2, pH 7.4 (HHBSS). […] The chemotaxis units were then placed in a CytoFlour 4000 (PerSeptive BioSystems) and the fluorescence of each well measured (excitation and emission wavelengths of 450 and 530 nm, respectively). […]

[2] = tested on: ICRAC in human Jurkat T cells; experiment: Whole-cell patch clamp, inhibition of ICRAC current in Jurkat T cells; format: cell-based
Protocol: Patch clamp experiments were performed in the tight-seal whole-cell configuration at 21-25° C. High resolution current recordings were acquired by a computer-based patch clamp amplifier system (EPC-9, HEKA, Lambrecht, Germany). Patch pipettes had resistances between 2-4 MΩ after filling with the standard intracellular solution. Immediately following establishment of the whole-cell configuration, voltage ramps of 50-200 ms duration spanning the voltage range of −100 to +100 mV were delivered at a rate of 0.5 Hz over a period of 300-400 seconds. […] Capacitive currents and series resistance were determined and corrected before each voltage ramp using the automatic capacitance compensation of the EPC-9. The low resolution temporal development of membrane currents was assessed by extracting the current amplitude at −80 mV or +80 mV from individual ramp current records.
In general, a whole cell patch clamp method was used to examine the effects of a compound of the invention on a channel that mediates Icrac. […] Then a compound to be tested was perfused (or puffed) to cells in the external solution and the effect of the compound on Icrac was measured. […]
Patch-clamp experiments were performed in the tight-seal whole-cell configuration at 21-25° C. […] Capacitive currents and series resistance were determined and corrected before each voltage ramp using the automatic capacitance compensation of the EPC-9. […]

[3] = tested on: degranulation in RBL cells; experiment: Inhibition of degranulation in RBL cells; format: cell-based; conditions: Rattus norvegicus, anti-DNP IgE, read-out: IC50 (concentration which inhibits 50% of degranulation in RBL cells)
Protocol: The day before the assay was performed, RBL cells, that had been grown to confluence in a 96 well plate, were incubated at 37° C. for at least 2 hours. The medium was replaced in each well with 100 μL of fresh medium containing […] of anti-DNP IgE.
On the following day, the cells were washed once with PRS (2.6 mM glucose and 0.1% BSA) and 160 μL of PRS was added to each well. A test compound was added to a well in a 20 μL solution at 10× of the desired concentration and incubated for 20 to 40 minutes at 37° C. 20 μL of 10× mouse anti-IgE ([…]) was added. Maximum degranulation occurred between 15 to 40 minutes after addition of anti-IgE.

[4] = tested on: chemotactic response of human T cells to MIP-1α; experiment: T cell chemotaxis (cell migration) assay, human T cells; format: cell-based; conditions: 100 ng/ml MIP-1α, FIG. 1
Protocol: as §1, §2

- IC50 (IL-2 production): 2 to 4 nM
- IC50 [1]: ~5 nM
- IC50 [3]: 2520 nM
Structure (SMILES): COC(=O)c1ccc(C)c(-c2ccc(NC(=O)c3c(F)cccc3F)cc2)c1 [Compound 1, 4′-(2,6-Difluoro-benzoylamino)-6-methyl-biphenyl-3-carboxylic acid methyl ester]
- Inhibition of ICRAC in human Jurkat T cells [2]: strong inhibitor
- Inhibition of chemotactic response of human T cells [4]: inhibitory
